Test results reported in US9795138B2, “Method for increasing the vigor and/or crop yield of agricultural plants under essentially non-existent pathogen pressure” (Bayer CropScience LP, priority 2009, dated 2017).

Key:
[1] = system: maize plants (variety Burrus 616XLR); assay: Maize field trial Carlyle, Ill.: grain yield, Colby; type: in vivo
From the text: Maize was planted in 2009 at Carlyle, Ill., U.S.A. The variety Burrus 616XLR was planted at a conventional seeding rate and a row spacing of 76 cm. The trial was setup as a randomized bloc design with six replications. Plot size was 18 m^2. Pyraclostrobin was applied at developmental stage 34/37 (BBCH). Bacillus subtilis QST 713 (SERENADE® MAX) was applied to the maize plants at developmental stage 34/37 (BBCH) followed by a second application at developmental stage 55/57 (BBCH). Bacillus subtilis QST 713 (SERENADE® MAX) in combination with pyraclostrobin were applied as a tank mix at the developmental stage 34/37 (BBCH). The active ingredients were applied using commercial formulations SERENADE® MAX (14.3%, WP with 7.3×10^9 cfu/g) and HEADLINE® (250 g/L, EC). Total spray volume for foliar applications was 200 L/ha. […] At maturity the crop was harvested and grain yield was measured as t/ha (Table 10).
The expected yield increase by the combination of the active compounds was estimated using Colby's formula (Colby, S. R., “Calculating Synergistic and Antagonistic Responses of Herbicide Combinations,” Weeds, 15, pp. 20-22, 1967) and compared with the observed yield increase. […]

peas = assay: Pea seed treatment, greenhouse plant fresh weight, Colby; type: in vivo; conditions: 12 days at 20° C., pyraclostrobin 5 g/100 kg seed, SERENADE MAX 173 g/100 kg seed
Procedure: The active compounds were used applying commercially available formulations and diluted according to the concentrations/dose rates as stated in the respective data tables.
Seed treatment was done to seeds of peas using the Hege Seed Treatment equipment in a sequential approach. Pyraclostrobin was applied with a volume of 850 mL slurry per 100 kg seeds. Afterwards the stated amount of SERENADE® MAX was dissolved in a total volume of 8.3 L water (amount for 100 kg seeds) and applied sequentially in ten steps with drying of the seeds in between. The compounds were used as commercial finished formulations and diluted with water to the stated concentration of the active compound.
Seeds of peas were sown in soil (10 seeds/pot, 10 replications/treatment) and incubated in the greenhouse at 20° C. for 12 days. Plants were harvested and pooled per treatment and the plant fresh weight was determined.
The expected plant fresh weights of active compound mixtures were determined using Colby's formula as defined above [R. S. Colby, “Calculating Synergistic and Antagonistic Responses of Herbicide Combinations,” Weeds 15, 20-22 (1967)] and compared with the observed plant fresh weights.

SMILES: COC(=O)N(OC)c1ccccc1COc1ccn(-c2ccc(Cl)cc2)n1 [Pyraclostrobin, pyraclostrobin]
- Grain Yield (t/ha) ([1]; maize, pyraclostrobin 0.44 L/ha solo (0.3 L/ha in mix) at BBCH 34/37, SERENADE MAX 3.0 kg/ha at 34/37 (solo also 55/57)): 8.32 t/ha
- Observed Yield Increase (t/ha) ([1]; vs untreated, same treatments): 0.05 t/ha
- Fresh Weight (peas): 47 g
